For the assay, the system named is MV-4-11 cells. Kind of assay: Gene expression microarray analysis (Affymetrix PrimeView) and GSEA. Type of assay: cell-based, human. On the set-up: RFU PODN (11730768_x_at) / Fold change /veh PODN (11730768_x_at) / RFU LINC00158 (11744669_a_at) / Fold change /veh LINC00158 (11744669_a_at) / RFU DUSP10 (11751237_a_at) / Fold change /veh DUSP10 (11751237_a_at) / RFU ID3 (11757404_x_at) / Fold change /veh ID3 (11757404_x_at) / RFU PLEKHG5 (11737974_s_at) / Fold change /veh PLEKHG5 (11737974_s_at) / RFU LRRC4B (11730491_at) / Fold change /veh LRRC4B (11730491_at) / RFU GIMAP4 (11747438_a_at) / Fold change /veh GIMAP4 (11747438_a_at) / RFU KRT8 (11758183_x_at) / Fold change /veh KRT8 (11758183_x_at) / RFU CNN1 (11734310_a_at) / Fold change /veh CNN1 (11734310_a_at) / RFU VPS37D (11726825_at) / Fold change /veh VPS37D (11726825_at) / RFU C10orf10 (11716522_x_at) / Fold change /veh C10orf10 (11716522_x_at) / RFU KIR2DL2 /// KIR2DL4 /// KIR2DL5A /// KIR2DL5B /// KIR2DS1 /// KIR2DS2 /// KIR2DS3 /// KIR2DS4 /// KIR3DL3 /// KIR3DL3 /// KIR3DS1 (11738374_at) / Fold change /veh KIR2DL2 /// KIR2DL4 /// KIR2DL5A /// KIR2DL5B /// KIR2DS1 /// KIR2DS2 /// KIR2DS3 /// KIR2DS4 /// KIR3DL3 /// KIR3DL3 /// KIR3DS1 (11738374_at) / RFU C1QL1 (11718748_at) / Fold change /veh C1QL1 (11718748_at) / RFU TMPRSS4 (11747572_a_at) / Fold change /veh TMPRSS4 (11747572_a_at) / RFU HAMP (11756126_x_at) / Fold change /veh HAMP (11756126_x_at) / RFU RNFT2 (11725882_a_at) / Fold change /veh RNFT2 (11725882_a_at) / RFU NR4A2 (11747474_a_at) / Fold change /veh NR4A2 (11747474_a_at) / RFU ABCC12 (11746883_a_at) / Fold change /veh ABCC12 (11746883_a_at) / RFU TMEM136 (11760407_x_at) / Fold change /veh TMEM136 (11760407_x_at) / RFU CLDN22 /// WWC2 (11732394_at) / Fold change /veh CLDN22 /// WWC2 (11732394_at) / RFU HLA-DPB1 (11760878_x_at) / Fold change /veh HLA-DPB1 (11760878_x_at) / RFU SPINT1 (11716480_a_at) / Fold change /veh SPINT1 (11716480_a_at) / RFU GAP43 (11754022_s_at) / Fold change /veh GAP43 (11754022_s_at) / RFU A4GNT (11735810_at) / Fold change /veh A4GNT (11735810_at) / RFU PRB3 (11715151_x_at) / Fold change /veh PRB3 (11715151_x_at) / RFU TUBB4B (11761932_at) / Fold change /veh TUBB4B (11761932_at) / RFU CAPN14 (11732068_a_at) / Fold change /veh CAPN14 (11732068_a_at) / RFU TMCC2 (11721928_a_at) / Fold change /veh TMCC2 (11721928_a_at) / RFU IRGQ (11745062_a_at) / Fold change /veh IRGQ (11745062_a_at) / RFU FAM174B (11720279_a_at) / Fold change /veh FAM174B (11720279_a_at) / RFU TMPRSS4 (11748680_a_at) / Fold change /veh TMPRSS4 (11748680_a_at) / RFU FAM212B (11763350_a_at) / Fold change /veh FAM212B (11763350_a_at) / RFU PLEKHG5 (11743358_a_at) / Fold change /veh PLEKHG5 (11743358_a_at) / RFU ZSCAN30 (11745921_a_at) / Fold change /veh ZSCAN30 (11745921_a_at) / RFU CMKLR1 (11741424_a_at) / Fold change /veh CMKLR1 (11741424_a_at) / RFU LOC101060620 /// MAPK8IP1 (11723275_at) / Fold change /veh LOC101060620 /// MAPK8IP1 (11723275_at) / RFU SPTSSB (11747773_x_at) / Fold change /veh SPTSSB (11747773_x_at) / RFU PRSS12 (11739890_at) / Fold change /veh PRSS12 (11739890_at) / RFU BIN1 (11741810_x_at) / Fold change /veh BIN1 (11741810_x_at) / RFU WNT11 (11732464_a_at) / Fold change /veh WNT11 (11732464_a_at) / RFU C10orf10 (11716521_a_at) / Fold change /veh C10orf10 (11716521_a_at) / RFU C5orf56 (11738089_at) / Fold change /veh C5orf56 (11738089_at) / RFU CYB561 (11721691_x_at) / Fold change /veh CYB561 (11721691_x_at) / RFU ANKRD19P (11752326_a_at) / Fold change /veh ANKRD19P (11752326_a_at) / RFU OR2T12 /// OR2T33 /// OR2T8 (11738714_s_at) / Fold change /veh OR2T12 /// OR2T33 /// OR2T8 (11738714_s_at) / RFU VCAN (11748164_a_at) / Fold change /veh VCAN (11748164_a_at) / RFU JSRP1 (11732532_at) / Fold change /veh JSRP1 (11732532_at) / RFU KRTAP10-11 (11738290_x_at) / Fold change /veh KRTAP10-11 (11738290_x_at) / RFU MYO3A (11730013_a_at) / Fold change /veh MYO3A (11730013_a_at) / RFU EBF3 (11725865_a_at) / Fold change /veh EBF3 (11725865_a_at) / RFU CAMK2N1 (11719241_x_at) / Fold change /veh CAMK2N1 (11719241_x_at) / RFU C5orf56 (11738088_a_at) / Fold change /veh C5orf56 (11738088_a_at) / RFU OLFML3 (11715873_a_at) / Fold change /veh OLFML3 (11715873_a_at) / RFU LOC100653217 /// NTM (11731650_a_at) / Fold change /veh LOC100653217 /// NTM (11731650_a_at) / RFU MAPK11 (11762145_a_at) / Fold change /veh MAPK11 (11762145_a_at) / RFU FIZ1 (11724087_x_at) / Fold change /veh FIZ1 (11724087_x_at) / RFU OASL (11726364_x_at) / Fold change /veh OASL (11726364_x_at) / RFU SOX15 (11748057_x_at) / Fold change /veh SOX15 (11748057_x_at) / RFU CD79A (11719716_a_at) / Fold change /veh CD79A (11719716_a_at) / RFU HIST1H1D (11736915_at) / Fold change /veh HIST1H1D (11736915_at) / RFU CASKIN2 (11723855_a_at) / Fold change /veh CASKIN2 (11723855_a_at) / RFU LOC730098 (11760151_x_at) / Fold change /veh LOC730098 (11760151_x_at) / RFU OR4N2 (11742367_at) / Fold change /veh OR4N2 (11742367_at) / RFU PRRT2 (11749266_a_at) / Fold change /veh PRRT2 (11749266_a_at) / RFU SNX32 (11753110_a_at) / Fold change /veh SNX32 (11753110_a_at) / RFU CDHR5 (11726645_a_at) / Fold change /veh CDHR5 (11726645_a_at) / RFU RCAN1 (11760418_a_at) / Fold change /veh RCAN1 (11760418_a_at) / RFU FAM167A (11723789_a_at) / Fold change /veh FAM167A (11723789_a_at) / RFU FAM26E (11764081_at) / Fold change /veh FAM26E (11764081_at) / RFU ISYNA1 (11749810_s_at) / Fold change /veh ISYNA1 (11749810_s_at) / RFU ACY1 (11761880_at) / Fold change /veh ACY1 (11761880_at) / RFU 11764098_at / Fold change /veh 11764098_at / RFU SAMD14 (11745864_x_at) / Fold change /veh SAMD14 (11745864_x_at) / RFU NPB (11741838_a_at) / Fold change /veh NPB (11741838_a_at) / RFU TMPRSS6 (11731388_a_at) / Fold change /veh TMPRSS6 (11731388_a_at) / RFU KRTAP10-2 (11738614_at) / Fold change /veh KRTAP10-2 (11738614_at) / RFU ARHGAP8 /// PRR5-ARHGAP8 (11727945_x_at) / Fold change /veh ARHGAP8 /// PRR5-ARHGAP8 (11727945_x_at) / RFU KRTAP5-7 /// NADSYN1 (11734609_at) / Fold change /veh KRTAP5-7 /// NADSYN1 (11734609_at) / RFU RASL12 (11751679_a_at) / Fold change /veh RASL12 (11751679_a_at) / RFU CDKN2B (11736163_a_at) / Fold change /veh CDKN2B (11736163_a_at) / RFU PRF1 (11729649_at) / Fold change /veh PRF1 (11729649_at) / RFU, ZNF638 /// ZNF638-IT1 / Fold change vs veh, ZNF638 /// ZNF638-IT1 / RFU, PANK3 / Fold change vs veh, PANK3 / RFU, SH3YL1 / Fold change vs veh, SH3YL1 / RFU, ZEB2 / Fold change vs veh, ZEB2 / RFU, NRIP1 / Fold change vs veh, NRIP1 / RFU, PTTG1IP / Fold change vs veh, PTTG1IP / RFU, CAPN2 / Fold change vs veh, CAPN2 / RFU, MED14 / Fold change vs veh, MED14 / RFU, SNORA58 / Fold change vs veh, SNORA58 / RFU, C1orf63 / Fold change vs veh, C1orf63 / RFU, LRRFIP1 / Fold change vs veh, LRRFIP1 / RFU, NDUFAF7 / Fold change vs veh, NDUFAF7 / RFU, SLC12A2 / Fold change vs veh, SLC12A2 / RFU, IBTK / Fold change vs veh, IBTK / RFU, ESF1 / Fold change vs veh, ESF1 / Fold change vs veh, TMEM50B / RFU, TAOK1 / Fold change vs veh, TAOK1 / RFU, ACBD3 / Fold change vs veh, ACBD3 / RFU, TMA16 / Fold change vs veh, TMA16 / RFU, RWDD3 / Fold change vs veh, RWDD3 / RFU, BCAT1 / Fold change vs veh, BCAT1 / RFU, EDEM3 / Fold change vs veh, EDEM3 / RFU, TMEM33 / Fold change vs veh, TMEM33 / RFU, WDR75 / Fold change vs veh, WDR75 / RFU, AHCTF1 / Fold change vs veh, AHCTF1 / RFU, TFRC / Fold change vs veh, TFRC / RFU, ZDHHC17 / Fold change vs veh, ZDHHC17 / RFU, NOM1 / Fold change vs veh, NOM1 / RFU, ARL8B / Fold change vs veh, ARL8B / RFU, ZBTB11 / Fold change vs veh, ZBTB11 / RFU, TAMM41 / Fold change vs veh, TAMM41 / RFU, KIAA1704 /// LOC100996395 / Fold change vs veh, KIAA1704 /// LOC100996395 / RFU, ING1 / Fold change vs veh, ING1 / RFU, TRMT61B / Fold change vs veh, TRMT61B / RFU, FUBP3 / Fold change vs veh, FUBP3 / RFU, TP53 / Fold change vs veh, TP53 / RFU, TNKS2 / Fold change vs veh, TNKS2 / RFU, ZFP14 / Fold change vs veh, ZFP14 / RFU, ACTR2 / Fold change vs veh, ACTR2 / RFU, PPP3R1 / Fold change vs veh, PPP3R1 / RFU, PIK3R1 / Fold change vs veh, PIK3R1 / RFU, HNRNPA1 / Fold change vs veh, HNRNPA1 / RFU, RNF170 / Fold change vs veh, RNF170 / RFU, ZNF28 / Fold change vs veh, ZNF28 / RFU, RNGTT / Fold change vs veh, RNGTT / RFU, OGT / Fold change vs veh, OGT / RFU, BRD1 / Fold change vs veh, BRD1 / RFU, MARS / Fold change vs veh, MARS / RFU, ZNF655 / Fold change vs veh, ZNF655 / RFU, FAHD1 / Fold change vs veh, FAHD1 / RFU, BDP1 / Fold change vs veh, BDP1 / RFU, LRRCC1 / Fold change vs veh, LRRCC1 / RFU, ARID1A / Fold change vs veh, ARID1A / RFU, ZNF146 / Fold change vs veh, ZNF146 / RFU, ZNF330 / Fold change vs veh, ZNF330 / RFU, GPN3 / Fold change vs veh, GPN3 / RFU, C9orf123 / Fold change vs veh, C9orf123 / RFU, N4BP2L2 / Fold change vs veh, N4BP2L2 / RFU, ARFIP1 / Fold change vs veh, ARFIP1 / RFU, FAM179B / Fold change vs veh, FAM179B / RFU, BCL10 / Fold change vs veh, BCL10 / RFU, UHRF1BP1L / Fold change vs veh, UHRF1BP1L / RFU, BET1 / Fold change vs veh, BET1 / RFU, CNOT2 / Fold change vs veh, CNOT2 / RFU, ZNF268 / Fold change vs veh, ZNF268 / Fold change vs veh, ZNF507 / RFU, DGCR2 / Fold change vs veh, DGCR2 / RFU, WDSUB1 / Fold change vs veh, WDSUB1 / Fold change vs veh, HSP90B1 /// MIR3652 / RFU, ADSS / Fold change vs veh, ADSS / RFU, GK / Fold change vs veh, GK / RFU, ZNF148 / Fold change vs veh, ZNF148 / RFU, TAF9 / Fold change vs veh, TAF9 / RFU, SLC1A5 / Fold change vs veh, SLC1A5 / RFU, SLMO2 / Fold change vs veh, SLMO2 / RFU, ABCC4 / Fold change vs veh, ABCC4 / RFU, LOC101060439 /// RAP1B / Fold change vs veh, LOC101060439 /// RAP1B / RFU, RFX7 / Fold change vs veh, RFX7 / RFU, GTPBP10 / Fold change vs veh, GTPBP10 / RFU, CNEP1R1 / Fold change vs veh, CNEP1R1 / RFU, BIVM-ERCC5 /// ERCC5 / Fold change vs veh, BIVM-ERCC5 /// ERCC5 / RFU, ILF3 / Fold change vs veh, ILF3 / RFU 11762660_at / Fold change /veh 11762660_at / RFU VCAN (11757783_s_at) / Fold change /veh VCAN (11757783_s_at) / RFU DDX43 (11728927_at) / Fold change /veh DDX43 (11728927_at) / RFU KRT8 (11758188_x_at) / Fold change /veh KRT8 (11758188_x_at) / RFU NKD1 (11759106_at) / Fold change /veh NKD1 (11759106_at) / RFU SRD5A1 (11742802_a_at) / Fold change /veh SRD5A1 (11742802_a_at) / RFU TPSAB1 /// TPSB2 (11721975_s_at) / Fold change /veh TPSAB1 /// TPSB2 (11721975_s_at) / RFU GSTM3 (11746129_a_at) / Fold change /veh GSTM3 (11746129_a_at) / RFU IL23R (11737362_x_at) / Fold change /veh IL23R (11737362_x_at) / RFU TMEM51 (11727254_a_at) / Fold change /veh TMEM51 (11727254_a_at) / RFU PIWIL2 (11732686_x_at) / Fold change /veh PIWIL2 (11732686_x_at) / RFU ORM1 (11744905_x_at) / Fold change /veh ORM1 (11744905_x_at) / RFU CCDC152 (11743942_at) / Fold change /veh CCDC152 (11743942_at) / RFU ECM1 (11717891_a_at) / Fold change /veh ECM1 (11717891_a_at) / RFU IL23R (11748794_a_at) / Fold change /veh IL23R (11748794_a_at) / RFU TNFAIP8L3 (11732012_x_at) / Fold change /veh TNFAIP8L3 (11732012_x_at) / RFU MBOAT4 (11741988_at) / Fold change /veh MBOAT4 (11741988_at) / RFU 11764193_at / Fold change /veh 11764193_at / RFU TMEM53 (11763286_at) / Fold change /veh TMEM53 (11763286_at) / RFU MAGEB2 (11727129_at) / Fold change /veh MAGEB2 (11727129_at) / RFU TMEM200A (11744735_a_at) / Fold change /veh TMEM200A (11744735_a_at) / RFU CCDC152 (11751479_a_at) / Fold change /veh CCDC152 (11751479_a_at) / RFU FAM211A (11726209_a_at) / Fold change /veh FAM211A (11726209_a_at) / RFU RGS16 (11746705_a_at) / Fold change /veh RGS16 (11746705_a_at) / RFU VCAN (11755009_s_at) / Fold change /veh VCAN (11755009_s_at) / RFU RHOB (11743442_s_at) / Fold change /veh RHOB (11743442_s_at) / RFU RGS16 (11720943_a_at) / Fold change /veh RGS16 (11720943_a_at) / RFU RGS16 (11720944_at) / Fold change /veh RGS16 (11720944_at) / RFU, VPS4B / Fold change vs veh, VPS4B / RFU, CREB1 / Fold change vs veh, CREB1 / RFU, DNAJC13 / Fold change vs veh, DNAJC13 / RFU, GNAQ / Fold change vs veh, GNAQ / RFU, CDK5R1 / Fold change vs veh, CDK5R1 / RFU, ZRANB3 / Fold change vs veh, ZRANB3 / RFU, CUL4A / Fold change vs veh, CUL4A / RFU, CCNY / Fold change vs veh, CCNY / RFU, UFL1 / Fold change vs veh, UFL1 / RFU, COG3 / Fold change vs veh, COG3 / RFU, DIAPH2 / Fold change vs veh, DIAPH2 / RFU, SKA2 / Fold change vs veh, SKA2 / RFU, AFF3 / Fold change vs veh, AFF3 / RFU, LMF1 / Fold change vs veh, LMF1 / RFU, IPO11 / Fold change vs veh, IPO11 / RFU, DFFB / Fold change vs veh, DFFB / RFU, FOXP1 / Fold change vs veh, FOXP1 / RFU, CARD8 / Fold change vs veh, CARD8 / RFU, STRN3 / Fold change vs veh, STRN3 / RFU, ADK / Fold change vs veh, ADK / RFU, RASSF2 / Fold change vs veh, RASSF2 / RFU, WIPF1 / Fold change vs veh, WIPF1 / RFU, LARP1B / Fold change vs veh, LARP1B / RFU, RASA1 / Fold change vs veh, RASA1 / RFU, RB1 / Fold change vs veh, RB1 / RFU, PPFIA1 / Fold change vs veh, PPFIA1 / RFU, MAT2A / Fold change vs veh, MAT2A / RFU, CCT5 / Fold change vs veh, CCT5 / RFU, WDR92 / Fold change vs veh, WDR92 / RFU, CUX1 / Fold change vs veh, CUX1 / RFU, TTC7A / Fold change vs veh, TTC7A / RFU, TMEM135 / Fold change vs veh, TMEM135 / RFU, DEPTOR / Fold change vs veh, DEPTOR / RFU, CPM / Fold change vs veh, CPM / RFU, DNAJB6 / Fold change vs veh, DNAJB6 / RFU, CACNA2D3 / Fold change vs veh, CACNA2D3 / RFU, DTX4 / Fold change vs veh, DTX4 / RFU, TFCP2 / Fold change vs veh, TFCP2 / RFU, GMCL1 /// GMCL1P1 / Fold change vs veh, GMCL1 /// GMCL1P1 / RFU, AEBP2 / Fold change vs veh, AEBP2 / RFU, SNHG1 /// SNORD22 /// SNORD25 /// SNORD26 /// SNORD27 /// SNORD28 /// SNORD29 /// SNORD31 / Fold change vs veh, SNHG1 /// SNORD22 /// SNORD25 /// SNORD26 /// SNORD27 /// SNORD28 /// SNORD29 /// SNORD31 / Fold change (Aza/veh), C12orf56 (ProbeSet 11735607_a_at) / Fold change (ACY-1035/veh), C12orf56 (ProbeSet 11735607_a_at) / Fold change (Aza/veh), FGFR1OP (ProbeSet 11751329_s_at) / Fold change (ACY-1035/veh), FGFR1OP (ProbeSet 11751329_s_at) / Fold change (Aza/veh), VPS36 (ProbeSet 11739960_a_at) / Fold change (ACY-1035/veh), VPS36 (ProbeSet 11739960_a_at) / RFU SYPL1 (11715823_x_at) / Fold change /veh SYPL1 (11715823_x_at) / RFU IGFBP7 (11715501_s_at) / Fold change /veh IGFBP7 (11715501_s_at) / RFU REEP3 (11722064_at) / Fold change /veh REEP3 (11722064_at) / RFU IGLL1 (11728026_x_at) / Fold change /veh IGLL1 (11728026_x_at): dose or concentration left out as unconfirmed. The note with it: MV-4-11 cells, 48 hours.

As for `Nc1ncn([C@@H]2O[C@H](CO)[C@@H](O)[C@H]2O)c(=O)n1` [azacitidine], the “RFU FAM174B (11720279_a_at)” value amounted to 25.09 RFU.

(Values after publication PMC5218480 (PLoS ONE, 2017).)
